Test results reported in US9938231B2, “Liquid arylbenzoyl benzoic acid ester derivatives for energy curable compositions” (SUN CHEMICAL CORPORATION, priority 2014, dated 2018).

Tests used:
Format in all cases: physicochemical
[1] = Solubility stability of photoinitiator blends; details: for Behaviour of the solution upon cooling to room temperature: 1:1 mixture with dimethylaminobenzoic acid ethylhexyl ester, dissolved at 50° C.
Description: A 1:1 mixture in weight of 4-phenylbenzoyl benzoic acid ethylhexyl ester and dimethylaminobenzoic acid ethylhexyl ester was transformed into a solution by stirring at room temperature. […] As a comparison experiment, a 1:1 mixture of 4-phenylbenzophenone and dimethylaminobenzoic acid ethylhexyl ester was turned into a solution at elevated temperature of 50° C.

[2] = Solubility in propoxylated pentaerythritol tetraacrylate SR 494 LM (PPTTA); details: for Solubility in PPTTA: stirred 30 minutes at room temperature
Description: 4-phenylbenzophenone, 4-phenylbenzoyl benzoic acid ethylhexyl ester, and 4-phenylbenzoyl benzoic acid amyl ester were each separately added to the multifunctional acrylate propoxylated pentaerythritol tetraacrylate (SR 494 LM, Sartomer company) (PPTTA) in amounts of 2, 4, 6, and 8 weight % and stirred for 30 minutes at room temperature.

[3] = Solubility in di-pentaerythritol hexaacrylate (DPHA); details: for Solubility in DPHA: stirred 30 minutes at room temperature
Description: 4-phenylbenzophenone, 4-phenylbenzoyl benzoic acid ethylhexyl ester, and 4-phenylbenzoyl benzoic acid amyl ester were each added separately to the multifunctional acrylate di-pentaerythritol hexaacrylate (DPHA, Miwon Company) in amounts of 2, 4, 6, and 8 weight %, and stirred for 30 minutes at room temperature.

[4] = UV-spectra measurement (absorption maximum, molar extinction coefficient); details: ethyl acetate; for Molar extinction coefficient: at absorption maximum
Description: Spectra were acquired using a Unicam UV-2 UV/VIS spectrophotometer. All absorption spectra were obtained using 1 cm cuvettes, scanning within the 200-800 nm range. Solutions were prepared in a 100 cm^3 volumetric flask, and if required, subsequently diluted so that a maximum absorbance of less than 2 was obtained. From the absorption the molar extinction coefficient e was calculated in liter·mol^−1·cm^−1.

[5] = Viscosity of the neat ester; details: at 25° C.

Row | SMILES | Behaviour of the solution upon cooling to room temperature [1] | Solubility in PPTTA ([2]; 2 weight % in PPTTA) | Solubility in PPTTA ([2]; 4 weight % in PPTTA) | Solubility in PPTTA ([2]; 6 weight % in PPTTA) | Solubility in PPTTA ([2]; 8 weight % in PPTTA) | Solubility in DPHA ([3]; 2 weight % in DPHA) | Solubility in DPHA ([3]; 4 weight % in DPHA) | Solubility in DPHA ([3]; 6 weight % in DPHA) | Solubility in DPHA ([3]; 8 weight % in DPHA) | Molar extinction coefficient [4] | Absorption maximum [4] | UV-spectroscopy: λ max [4] | Solubility in PPTTA compared with 4-phenyl benzophenone [2] | Solubility in DPHA compared with 4-phenyl benzophenone [3] | State of the solution at 5° C. ([1]; 1:1 mixture in weight with dimethylaminobenzoic acid ethylhexyl ester) | Viscosity [5]
1 | COC(=O)c1ccccc1C(=O)c1ccc(-c2ccccc2)cc1 [4-phenylbenzoyl benzoic acid methyl ester] | instability and precipitation | – | – | – | – | – | – | – | – | – | – | – | – | – | – | –
2 | O=C(c1ccccc1)c1ccc(-c2ccccc2)cc1 [Example 1, 4-phenyl benzophenone, reference compound] | precipitated | solution | hazy | Solid residuals | Solid residuals | solution | solution | Hazy- opaque | Solid residuals | – | – | – | – | – | – | –
3 | CCCCC(CC)COC(=O)c1ccccc1C(=O)c1ccc(-c2ccccc2)cc1 (stereo not shown) [Example 9, 4-Phenylbenzoyl Benzoic Acid Ethyl Hexyl Ester] | – | solution | solution | solution | solution | solution | solution | solution | solution | 20100 liter · mol^−1 · cm · ^−1 | 287 (ethyl acetate) nm | 287 nm | better solubility than 4-phenyl benzophenone | better solubility than 4-phenyl benzophenone | stayed liquid | 12 Pa·s
4 | CCCCCOC(=O)c1ccccc1C(=O)c1ccc(-c2ccccc2)cc1 [Example 10, 4-Phenylbenzoyl Benzoic Acid Amyl Ester] | – | solution | solution | solution | solution | solution | solution | solution | solution | – | – | 286 nm | better solubility than 4-phenyl benzophenone | better solubility than 4-phenyl benzophenone | – | 13 Pa·s
5 | CCCCC(CC)COC(=O)c1ccccc1C(=O)c1ccc(-c2ccc(-c3ccccc3)cc2)cc1 (stereo not shown) [Example 12, 4-Terphenoyl Benzoic Acid Ethylhexyl Ester] | – | – | – | – | – | – | – | – | – | 24900 liter · mol^−1 · cm · ^−1 | 309 (ethyl acetate) nm | 309 nm | – | – | – | –
